Series [1] relates to cancer cells (MDA-MB-231, MCF-7, PC-3, HeLa, HT-29) and normal cells (MRC-5, Clone-1-5c-4, NIH3T3). Briefly: Cytotoxicity (Dark) by MTT analysis. It is filed as cell-based, human; mouse (NIH/3T3). To be noted: 1 hour incubation, no laser. The protocol:
In order to confirm of the cytotoxicity of MB NPs, 200 μL of a cell culture solution in which 1×10^4 ea of cells were dispersed was put into a dish for cell culture (96-well plate) and cultured (5% CO2, 37° C.) in an artificial culture chamber for 24 hours, and the dish was washed with DPBS, and then a mixture solution of 20 μL of MB NPs and 180 μL of a cell culture solution was added to the cell, and the resulting culture solution was cultured in the same artificial culture chamber for 1 hour. After the dish was washed with DPBS, the number of each cell was observed by the MTT analysis method.
The experiment was performed on cancer cells and normal cells, and MDA-MB-231 cell, MCF-7 cell, PC-3 cell, HeLa cell, and HT-29 cell are illustrated in FIGS. 7a, 7b, 7c, 7d, and 7e, respectively, and normal cells MRC-5, Clone-1-5c-4, and NIH3T3 are illustrated in FIGS. 8a to 8c, respectively.

The test system of series [2] is cancer cells MDA-MB-231, MCF-7, PC-3, HeLa, HT-29; normal cells MRC-5, clone 1-5c-4, NIH/3T3. Briefly: Accumulation in cells by fluorescence microscopy. It is filed as cell-based, human; mouse (NIH/3T3). Particulars: 1 hour incubation, fluorescence microscope. The protocol: In order to determine if the nanoparticles (MB NPs) prepared in Example 1 would be accumulated in the cancer cell, 1×10^5 of each of cancer cells MDA-MB-231 (breast, mammary gland/human, Korean Cell Line Bank), MCF-7 (breast, mammary gland/human, Korean Cell Line Bank), PC-3 (prostate; grade 4; metastasis to bone/human, Korean Cell Line Bank), HeLa (cervix/human, Korean Cell Line Bank), and HT-29 (Colon/human, Korean Cell Line Bank) was respectively dispersed in 2 mL of cell culture solution [DMEM (WELGENE) culture solution was used for the HeLa cell, and RPMI1640 (WELGENE) culture solution was used for the other cells]. And then the solution was put into a dish for cell culture (35 mm, glass-bottomed dish), and cultured in a culture chamber (5% CO2, 37° C.). After 24 hours, the dish was washed with 2 mL of DPBS (WELGENE), and 1.8 mL of the culture solution and 0.2 mL of the nanoparticles were added thereto, and the resulting dish was stored in a culture chamber (5% CO2, 37° C.) for 1 hour. The stored cell culture dish was washed with 2 mL of DPBS, cells were fixed with 1 mL of a cell fixation solution, and then fluorescence images were observed by fluorescence microscope (LEICA DMI3000B equipped with a Nuance FX multispectral imaging system, CRI). […]

SMILES strings stand for the structures.

Consider `CN(C)c1ccc2nc3ccc(=[N+](C)C)cc-3sc2c1` [MB Sol., methylene blue], for which the “cytotoxicity of the material (Dark)” value in series [1] was “no cytotoxicity of the material itself”. Also, the “infiltration capacity into cell” value in series [2] is reported as “not found in the cell”.

For the origin of these results see US10335488B2, “Method for treating cancer by photodynamic therapy” (D. R. NANO CO., LTD., priority 2014, dated 2019).
